Test results reported in the NIST ThermoML archive (doi:10.1021/je700700f).
Numbers after ± are expanded uncertainties.

Columns and labels:
[1] = xn = mol fraction of the nth substance listed; conditions: 298.15 K, 101 kPa, Liquid; for viscosity: Capillary tube (Ostwald / Ubbelohde) method
[2] = refractive index (Na D-line) (dimensionless); xn = mol fraction of the nth substance listed; conditions: 298.15 K, 101 kPa, Liquid, Standard Abbe refractometry
[3] = 298.15 K, Liquid; for viscosity: Capillary tube (Ostwald / Ubbelohde) method
[4] = refractive index (Na D-line) (dimensionless); conditions: 298.15 K; 101.33 kPa; Liquid; Standard Abbe refractometry

CCCO [propan-1-ol] + O
Conditions	mass density, [1] [kg/m3]	refractive index, [2]	viscosity, [1] [mPa·s]
x1 = 0.0504	975.1 ± 0.2	1.34612 ± 0.00068	1.616 ± 0.011
x1 = 0.0993	953.3 ± 0.2	1.35475 ± 0.00068	2.121 ± 0.013
x1 = 0.1986	914.9 ± 0.3	1.36491 ± 0.00068	2.599 ± 0.015
x1 = 0.2979	887.2 ± 0.3	1.37116 ± 0.00068	2.691 ± 0.015
x1 = 0.3949	866.9 ± 0.4	1.37516 ± 0.00068	2.61 ± 0.015
x1 = 0.4955	850.3 ± 0.4	1.37805 ± 0.00068	2.494 ± 0.014
x1 = 0.5953	836.9 ± 0.4	1.38008 ± 0.00068	2.339 ± 0.014
x1 = 0.6995	825.6 ± 0.4	1.38154 ± 0.00068	2.221 ± 0.013
x1 = 0.7969	816.3 ± 0.4	1.38239 ± 0.00068	2.124 ± 0.013
x1 = 0.8983	807.7 ± 0.4	1.38299 ± 0.00068	2.026 ± 0.012
x1 = 0.9518	803.5 ± 0.4	1.38308 ± 0.00068	1.998 ± 0.012
x1 = 1	799.6 ± 0.4	1.38309 ± 0.00068	2.017 ± 0.012

CCOS(=O)(=O)[O-].CCn1cc[n+](C)c1 [1-ethyl-3-methylimidazolium ethyl sulfate]
[3], 101.33 kPa
Conditions	mass density [kg/m3]	viscosity [mPa·s]
–	1237.63 ± 1.7	97.58 ± 3.2

CC(C)O [propan-2-ol]
[3], 101 kPa
Conditions	mass density [kg/m3]	viscosity [mPa·s]
–	780.7 ± 0.5	2.082 ± 0.013

Conditions	refractive index
[4]	1.375 ± 0.0007

CCCO [propan-1-ol]
[3], 101 kPa
Conditions	mass density [kg/m3]	viscosity [mPa·s]
–	799.6 ± 0.4	2.017 ± 0.012

Conditions	refractive index
[4]	1.38309 ± 0.00068

CC(C)O [propan-2-ol] + O
Conditions	mass density, [1] [kg/m3]	refractive index, [2]	viscosity, [1] [mPa·s]
x1 = 0.0491	974.6 ± 0.2	1.3456 ± 0.0007	1.718 ± 0.011
x1 = 0.1008	953.6 ± 0.2	1.3557 ± 0.0007	2.495 ± 0.015
x1 = 0.2011	912.6 ± 0.3	1.365 ± 0.0007	3.038 ± 0.017
x1 = 0.2994	881.6 ± 0.3	1.3697 ± 0.0007	3.087 ± 0.018
x1 = 0.3992	857.7 ± 0.4	1.3724 ± 0.0007	2.924 ± 0.017
x1 = 0.4981	838.8 ± 0.4	1.374 ± 0.0007	2.693 ± 0.016
x1 = 0.5979	823.5 ± 0.4	1.3749 ± 0.0007	2.489 ± 0.015
x1 = 0.6987	810.6 ± 0.4	1.3754 ± 0.0007	2.274 ± 0.014
x1 = 0.7993	799.4 ± 0.5	1.3756 ± 0.0007	2.153 ± 0.013
x1 = 0.8998	789.8 ± 0.5	1.3754 ± 0.0007	2.073 ± 0.013
x1 = 0.9495	785.4 ± 0.5	1.3752 ± 0.0007	2.063 ± 0.013
x1 = 1	780.7 ± 0.5	1.375 ± 0.0007	2.082 ± 0.013
